From US7704995B2 (Exelixis, Inc., priority 2003, dated 2010)

molecular target: T1, Chk1 (Homo sapiens, UniProt O14757); test: Chk1 kinase assay: incorporation of γ-33P ATP into immobilized myelin basic protein; format: biochemical; settings: Table 11, Chk1 only; class symbols A-D; read-out: Chk1 IC50
T1 construct: purchased Upstate Biotechnology
T1 sequence (O14757 1-476): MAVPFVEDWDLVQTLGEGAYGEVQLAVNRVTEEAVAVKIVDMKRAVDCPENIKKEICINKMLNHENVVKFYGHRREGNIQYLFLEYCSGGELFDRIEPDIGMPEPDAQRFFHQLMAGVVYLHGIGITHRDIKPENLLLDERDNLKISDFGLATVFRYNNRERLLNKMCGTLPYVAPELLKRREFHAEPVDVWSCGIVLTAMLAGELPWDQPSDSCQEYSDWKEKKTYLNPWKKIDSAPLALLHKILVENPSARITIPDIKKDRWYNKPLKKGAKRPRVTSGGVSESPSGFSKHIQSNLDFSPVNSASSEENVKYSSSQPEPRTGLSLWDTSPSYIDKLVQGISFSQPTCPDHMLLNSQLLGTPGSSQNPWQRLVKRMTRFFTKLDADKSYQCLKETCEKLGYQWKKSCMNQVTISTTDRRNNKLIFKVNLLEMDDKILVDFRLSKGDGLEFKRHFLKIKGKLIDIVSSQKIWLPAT
Method in brief: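 Read-out is scintillation counting of 33P incorporated into plate-bound myelin basic protein. Chk1 runs at 10 nM enzyme with 10 μM ATP, Chk2 at 20 nM with 30 μM ATP, each for 1 hour at room temperature. Duplicate points; IC50 taken as 50% activity reduction, Ki computed from IC50.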

| Compound | IC50 |
| --- | --- |
| Nc1cc(-c2n[nH]c(-c3nc(-c4cccc(CN[C@H]5CCc6ccccc65)c4)cnc3N)n2)ccn1 [Example 946, 3-[3-(2-aminopyridin-4-yl)-1H-1,2,4-triazol-5-yl]-5-(3-{[(1S)-2,3-dihydro-1H-inden-1-ylamino]methyl}phenyl)pyrazin-2-amine] | < 0.05 µM |
| Nc1ncc(-c2cccc(CN[C@H]3CCc4ccccc43)c2)nc1C(=O)NC1CCCCNC1 (stereo partly drawn) [Example 947, 3-amino-N-azepan-3-yl-6-(3-{[(1S)-2,3-dihydro-1H-inden-1-ylamino]methyl}phenyl)pyrazine-2-carboxamide] | < 0.05 µM |
| Nc1ncc(-c2cccc(CNC(=O)c3csc(-c4cccs4)n3)c2)nc1C(=O)N[C@H]1CCCNC1 [Example 948, 3-amino-N-[(3S)-piperidin-3-yl]-6-{3-[({[2-(2-thienyl)-1,3-thiazol-4-yl]carbonyl}amino)methyl]phenyl}pyrazine-2-carboxamide] | < 0.05 µM |
| Nc1ncc(-c2cccc(CNC(=O)c3cncc(-c4cccs4)c3)c2)nc1C(=O)N[C@H]1CCCNC1 [Example 949, 3-amino-N-[(3S)-piperidin-3-yl]-6-{3-[({[5-(2-thienyl)pyridin-3-yl]carbonyl}amino)methyl]phenyl}pyrazine-2-carboxamide] | < 0.05 µM |
| CC(C)(C)c1ccc(CNC(=O)c2cccc(-c3cnc(N)c(C(=O)N[C@H]4CCCNC4)n3)c2)cc1 [Example 950, 3-amino-6-{3-[({[4-(1,1-dimethylethyl)phenyl]methyl}amino)carbonyl]phenyl}-N-[(3S)-piperidin-3-yl]pyrazine-2-carboxamide] | < 0.05 µM |
| Cc1cc(Cl)cc(Cl)c1CNC(=O)c1cccc(-c2cnc(N)c(C(=O)N[C@H]3CCCNC3)n2)c1 [Example 951, 3-amino-6-[3-({[(2,4-dichloro-6-methylphenyl)methyl]amino}carbonyl)phenyl]-N-[(3S)-piperidin-3-yl]pyrazine-2-carboxamide] | < 0.05 µM |
| Nc1ncc(-c2cccc(C(=O)NCc3cc(Cl)cc(Cl)c3)c2)nc1C(=O)N[C@H]1CCCNC1 [Example 952, 3-amino-6-[3-({[(3,5-dichlorophenyl)methyl]amino}carbonyl)phenyl]-N-[(3S)-piperidin-3-yl]pyrazine-2-carboxamide] | < 0.05 µM |
| Nc1ncc(-c2cccc(CNS(=O)(=O)c3cccs3)c2)nc1C(=O)N[C@H]1CCCNC1 [Example 953, 3-amino-N-[(3S)-piperidin-3-yl]-6-(3-{[(2-thienylsulfonyl)amino]methyl}phenyl)pyrazine-2-carboxamide] | < 0.05 µM |
| Nc1ncc(-c2cccc(CNS(=O)(=O)c3ccsc3)c2)nc1C(=O)N[C@H]1CCCNC1 [Example 954, 3-amino-N-[(3S)-piperidin-3-yl]-6-(3-{[(3-thienylsulfonyl)amino]methyl}phenyl)pyrazine-2-carboxamide] | < 0.05 µM |
| Nc1ncc(-c2cccc(CNS(=O)(=O)c3ccc(Cl)cc3)c2)nc1C(=O)N[C@H]1CCCNC1 [Example 955, 3-amino-6-[3-({[(4-chlorophenyl)sulfonyl]amino}methyl)phenyl]-N-[(3S)-piperidin-3-yl]pyrazine-2-carboxamide] | < 0.05 µM |
| Nc1ncc(-c2cccc(CNC(=O)Nc3ccc4c(c3)OCO4)c2)nc1C(=O)N[C@H]1CCCNC1 [Example 956, 3-amino-6-[3-({[(1,3-benzodioxol-5-ylamino)carbonyl]amino}methyl)phenyl]-N-[(3S)-piperidin-3-yl]pyrazine-2-carboxamide] | < 0.05 µM |
| COc1ccc(NC(=O)NCc2cccc(-c3cnc(N)c(C(=O)N[C@H]4CCCNC4)n3)c2)cc1 [Example 957, 3-amino-6-(3-{[({[4-(methyloxy)phenyl]amino}carbonyl)amino]methyl}phenyl)-N-[(3S)-piperidin-3-yl]pyrazine-2-carboxamide] | < 0.05 µM |
| Nc1ncc(-c2cccc(CNC(=O)Nc3ccc(F)cc3)c2)nc1C(=O)N[C@H]1CCCNC1 [Example 958, 3-amino-6-{3-[({[(4-fluorophenyl)amino]carbonyl}amino)methyl]phenyl}-N-[(3S)-piperidin-3-yl]pyrazine-2-carboxamide] | < 0.05 µM |
| CCN(CC)CCOc1cccc(-c2cnc(N)c(C(=O)N[C@H]3CCCNC3)n2)c1 [Example 959, 3-amino-6-(3-{[2-(diethylamino)ethyl]oxy}phenyl)-N-[(3S)-piperidin-3-yl]pyrazine-2-carboxamide] | < 0.05 µM |
| Nc1ncc(-c2cccc(OCCN3CCOCC3)c2)nc1C(=O)N[C@H]1CCCNC1 [Example 960, 3-amino-6-{3-[(2-morpholin-4-ylethyl)oxy]phenyl}-N-[(3S)-piperidin-3-yl]pyrazine-2-carboxamide] | 0.05 to 1 µM |
| COc1cccc(-c2cnc(N)c(C(=O)N[C@H]3CCCNC3)n2)c1 [Example 961, 3-amino-6-[3-(methyloxy)phenyl]-N-[(3S)-piperidin-3-yl]pyrazine-2-carboxamide] | < 0.05 µM |
| CCOc1cccc(-c2cnc(N)c(C(=O)N[C@H]3CCCNC3)n2)c1 [Example 962, 3-amino-6-[3-(ethyloxy)phenyl]-N-[(3S)-piperidin-3-yl]pyrazine-2-carboxamide] | < 0.05 µM |
| Nc1ncc(-c2cccc(C(=O)NCc3ccc(-c4csnn4)cc3)c2)nc1C(=O)N[C@H]1CCCNC1 [Example 963, 3-amino-N-[(3S)-piperidin-3-yl]-6-{3-[({[4-(1,2,3-thiadiazol-4-yl)phenyl]methyl}amino)carbonyl]phenyl}pyrazine-2-carboxamide] | < 0.05 µM |
| CCNCCOc1cccc(-c2cnc(N)c(C(=O)N[C@H]3CCCNC3)n2)c1 [Example 964, 3-amino-6-(3-{[2-(ethylamino)ethyl]oxy}phenyl)-N-[(3S)-piperidin-3-yl]pyrazine-2-carboxamide] | < 0.05 µM |
| Nc1ncc(-c2cccc(OCCN3CCN(C(=O)OCc4ccccc4)CC3)c2)nc1C(=O)N[C@H]1CCCNC1 [Example 965, phenylmethyl 4-(2-{[3-(5-amino-6-{[(3S)-piperidin-3-ylamino]carbonyl}pyrazin-2-yl)phenyl]oxy}ethyl)piperazine-1-carboxylate] | < 0.05 µM |
| CN(C)c1ccc(NC(=O)NCc2cccc(-c3cnc(N)c(C(=O)N[C@H]4CCCNC4)n3)c2)cc1 [Example 966, 3-amino-6-(3-{[({[4-(dimethylamino)phenyl]amino}carbonyl)amino]methyl}phenyl)-N-[(3S)-piperidin-3-yl]pyrazine-2-carboxamide] | < 0.05 µM |
| Nc1ncc(-c2cccc(C(=O)N[C@H]3CCc4ccccc43)c2)nc1C(=O)NC1CCCCNC1 (stereo partly drawn) [Example 967, 3-amino-N-azepan-3-yl-6-(3-{[(1S)-2,3-dihydro-1H-inden-1-ylamino]carbonyl}phenyl)pyrazine-2-carboxamide] | < 0.05 µM |
| Nc1ncc(-c2cccc(CN[C@@H]3c4ccccc4C[C@@H]3O)c2)nc1C(=O)N[C@H]1CCCNC1 [Example 968, 3-amino-6-[3-({[(1R,2S)-2-hydroxy-2,3-dihydro-1H-inden-1-yl]amino}methyl)phenyl]-N-[(3S)-piperidin-3-yl]pyrazin-2-carboxamide] | < 0.05 µM |
| Nc1ncc(-c2cccc(C(=O)N[C@H]3c4ccccc4C[C@@H]3O)c2)nc1C(=O)N[C@H]1CCCCN(Cc2ccccc2)C1 [Example 969, 3-amino-6-[3-({[(1S,2S)-2-hydroxy-2,3-dihydro-1H-inden-1-yl]amino}carbonyl)phenyl]-N-[(3S)-1-(phenylmethyl)azepan-3-yl]pyrazine-2-carboxamide] | 1 to 10 µM |
| Nc1ncc(-c2cccc(C(=O)N[C@H]3c4ccccc4C[C@@H]3O)c2)nc1C(=O)N[C@H]1CCCCNC1 [Example 970, 3-amino-N-[(3S)-azepan-3-yl]-6-[3({[(1S,2S)-2-hydroxy-2,3-dihydro-1H-inden-1-yl]amino}carbonyl)phenyl]pyrazine-2-carboxamide] | < 0.05 µM |
| Nc1ncc(-c2cccc(CNC(=O)Nc3ccc(Cl)cc3)c2)nc1C(=O)N[C@H]1CCCNC1 [Example 971, 3-amino-6-{3-[({[(4-chlorophenyl)amino]carbonyl}amino)methyl]phenyl}-N-[(3S)-piperidin-3-yl]pyrazine-2-carboxamide] | < 0.05 µM |
| Nc1ncc(-c2cccc(C(=O)N[C@H]3CCc4ccccc43)c2)nc1C(=O)N[C@H]1CCCCN(Cc2ccccc2)C1 [Example 972, 3-amino-6-(3-{[(1S)-2,3-dihydro-1H-inden-1-ylamino]carbonyl}phenyl)-N-[(3S)-1-(phenylmethyl)azepan-3-yl]pyrazine-2-carboxamide] | 0.05 to 1 µM |
| Nc1ncc(-c2cccc(C(=O)N[C@H]3CCc4ccccc43)c2)nc1C(=O)N[C@H]1CCCCNC1 [Example 973, 3-amino-N-[(3S)-azepan-3-yl]-6-(3{[(1S)-2,3-dihydro-1H-inden-1-ylamino]carbonyl}phenyl)pyrazine-2-carboxamide] | < 0.05 µM |
| Cc1cccc(-c2cnc(N)c(C(=O)N[C@H]3CCCCNC3)n2)c1 [Example 974, 3-amino-N-[(3S)-azepan-3-yl]-6-(3-methylphenyl)pyrazine-2-carboxamide] | < 0.05 µM |
| Cc1ccccc1CC(=O)Nc1cccc(-c2cnc(N)c(C(=O)N[C@H]3CCCNC3)n2)c1 [Example 975, 3-amino-6-(3-{[(2-methylphenyl)acetyl]amino}phenyl)-N-[(3S)-piperidin-3-yl]pyrazine-2-carboxamide] | < 0.05 µM |
